Here are results for 44 compounds from patent US6579882B2, “Cell adhesion-inhibiting antiinflammatory compounds” (Abbott Laboratories, priority 1998, dated 2003).

Molecules are shown by their SMILES.

As to `O=C(NCCCl)c1cc2c(Oc3ccc(Cl)cc3)cncc2s1`, the melting point (in general, the temperature, or range, at which the solid turns liquid) was 60 to 62 °C (dec.).
`CSc1nnc(Sc2ncnc3c(C)csc23)s1` [Example 13, 7-methyl-4-[[5-(methylthio)-1,3,4-thiadiazol-2-yl]thio]thieno[3,2-d]pyrimidine]: the melting point lay within 163 to 166 °C.
The value for `CCc1cc2c(SCc3ccccc3)ncnc2s1` [Example 5, 6-ethyl-4-[(phenylmethyl)thio]thieno[2,3-d]pyrimidine] was 54 to 60 °C; that for `Cc1ccc(Sc2cncc3sc(C=NOCc4ccccc4)cc23)cc1` [Example 27, 4-[(4-methylphenyl)thio]thieno[2,3-c]pyridine-2-carboxaldehyde, O-(phenylmethyl)oxime] was 127 to 133 °C.
With `NC(=O)c1sc2cncc(Oc3ccc(Cl)cc3)c2c1N` [Example 131, 3-amino-4-(4-chlorophenoxy)thieno[2,3-c]pyridine-2-carboxamide], the melting point was 202 to 204 °C.
The value for `Clc1ccc(Oc2cncc3sc(-c4cccs4)cc23)cc1` [Example 292, 4-(4-Chlorophenoxy)-2-(2-thienyl)thieno[2,3-c]pyridine] was 101 to 103 °C.
For the compound `Clc1ccc(Oc2cncc3sc(-c4ncon4)cc23)cc1` (hydrate or solvate) [Example 287, 4-(4-Chlorophenoxy)-2-(1,2,4-oxadiazol-3-yl)thieno[2,3-c]pyridine], the melting point was 151 to 152 °C.
`CNC(=O)c1cc2c(Oc3cccc(F)c3)cncc2s1` [Example 180, 4-(3-Fluorophenoxy)-N-methylthieno[2,3-c]pyridine-2-carboxamide]: the melting point was in the range of 194 to 195 °C.
Next, `CCC(=NO)c1cc2c(Oc3ccc(Cl)cc3)cncc2s1` [Example 246, 1-[4-(4-Chlorophenoxy)thieno[2,3-c]pyridin-2-yl]-1-propanone oxime]: 195 to 198 °C (dec.); `CNC(=O)c1cc2c(Oc3ccc(C(F)(F)F)cc3)cnc(Cl)c2s1` [Example 319, 7-Chloro-N-methyl-4-[4-(trifluoromethyl)phenoxy]thieno[2,3-c]pyridine-2-carboxamide]: 178 to 179 °C; `N#CN=C(N)c1cc2c(Oc3ccc(Cl)cc3)cncc2s1` [Example 250, 4-(4-Chlorophenoxy)-N′-cyanothieno[2,3-c]pyridine-2-carboximidamide]: 265 to 268 °C.
Next, `Cc1ccc(Sc2cncc3sc(C=NOCC(N)=O)cc23)cc1` [Example 31, 2-[[[4-[(4-methylphenyl)thio]thieno[2,3-c]pyridine-2-ylmethylene]amino]oxy]acetamide]: 152 to 156 °C; `CON(C)C(=O)c1cc2c(Sc3ccc(C)cc3)cncc2s1` [Example 22, N-methoxy-N-methyl-4-[(4-methylphenyl)thio]thieno[2,3-c]pyridine-2-carboxamide]: 103 to 107 °C; `CNC(=O)c1cc2c(Oc3ccc(COC4CCCCO4)cc3)cncc2s1` (centres unmarked) [Example 199, N-Methyl-4-{4-[(tetrahydro-2H-pyran-2-yloxy)methyl]phenoxy}thieno[2,3-c]pyridine-2-carboxamide]: 195 to 196 °C.
The value for `Cc1ccc(Sc2cncc3sc(C=NOCC(=O)O)cc23)cc1` [Example 28, 2-[[[4-[(4-methylphenyl)thio]thieno[2,3-c]pyridin-2-ylmethylene]amino]oxy]acetic acid] was 227 to 230 °C; that for `NCCNC(=O)c1cc2c(Oc3ccc(Cl)cc3)cncc2s1` [Example 154, N-(2-Aminoethyl)-4-(4-chlorophenoxy)thieno[2,3-c]pyridine-2-carboxamide] was 111 to 114 °C; that for `CCc1cc2c(Sc3ccc(C)cc3)ncnc2s1` [Example 2, 6-ethyl-4-[(4-methylphenyl)thio]thieno[2,3-d]pyrimidine] was 56 to 58 °C.
In turn, `CNC(=O)c1cc2c(Oc3ccc(F)c(F)c3F)cncc2s1` [Example 181, N-Methyl-4-(2,3,4-trifluorophenoxy)thieno[2,3-c]pyridine-2-carboxamide] had a melting point of 170 to 171 °C.
Next, `Cc1ccc(Sc2cncc3sc(C=NOc4ccccc4)cc23)cc1` [Example 29, 4-[(4-methylphenyl)thio]thieno[2,3-c]pyridine-2-carboxaldehyde, O-phenyloxime]: 94 to 97 °C; `CONC(=O)c1cc2c(Sc3ccc(C)cc3)cncc2s1` [Example 23, N-methoxy-4-[(4-methylphenyl)thio]thieno[2,3-c]pyridine-2-carboxamide]: 200 to 203 °C; `CC(=NO)c1cc2c(Sc3ccc(C)cc3)cncc2s1` [Example 36, 1-[4-[(4-methylphenyl)thio]thieno[2,3-c]pyridin-2-yl]ethanone, oxime]: 209 to 213 °C.
`NC(=O)c1csc(-c2cc3c(Oc4ccc(Cl)cc4)cncc3s2)n1` [Example 293, 2-[4-(4-Chlorophenoxy)thieno[2,3-c]pyridin-2-yl]-1,3-thiazole-4-carboxamide]: the melting point was 215 to 218 °C.
`CCc1cc(Oc2cncc3sc(C(N)=O)cc23)ccc1Cl` [Example 176, 4-(4-Chloro-3-ethylphenoxy)thieno[2,3-c]pyridine-2-carboxamide] had a melting point of 185 to 187 °C.
The value for `Cc1ccc(Sc2cncc3sc(C(N)=O)cc23)cc1C` [Example 50, 4-[(3,4-dimethylphenyl)thio]thieno[2,3-c]pyridine-2-carboxamide] was 192 to 194 °C; that for `CON=Cc1cc2c(Sc3ccc(C)cc3)cncc2s1` [Example 26, 4-[(4-methylphenyl)thio]thieno[2,3-c]pyridine-2-carboxaldehyde, O-methyloxime] was 95 to 98 °C.
For `Nc1nnc(-c2cc3c(Oc4ccc(Cl)cc4)cncc3s2)[nH]1` [Example 277, 5-[4-(4-Chlorophenoxy)thieno[2,3-c]pyridin-2-yl]-4H-1,2,4-triazol-3-amine], the melting point was above 270 °C.
Next, `NC(=O)c1cc2c(Oc3ccc(F)c(F)c3F)cncc2s1` [Example 182, 4-(2,3,4-Trifluorophenoxy)thieno[2,3-c]pyridine-2-carboxamide]: 218 to 219 °C.
Next, `Cc1ccc(Sc2ncnc3c(C)csc23)cc1` [Example 11, 7-methyl-4-[(4-methylphenyl)thio]thieno[3,2-d]pyrimidine]: 103 to 107 °C; `Cc1ccccc1Sc1cncc2sc(C(N)=O)cc12` [Example 48, 4-[(2-methylphenyl)thio]thieno[2,3-c]pyridine-2-carboxamide]: 170 to 172 °C.
The value for `CCOC(=O)c1cnc2sccc2c1Sc1nnc(C)s1` [Example 134, ethyl 4-[(5-methyl-1,3,4-thiadiazol-2-yl)thio]thieno[2,3-b]pyridine-5-carboxylate] was 93 to 94 °C; that for `Nc1nc(-c2cc3c(Oc4ccc(Cl)cc4)cncc3s2)no1` (hydrate or solvate) [Example 289, 3-[4-(4-Chlorophenoxy)thieno[2,3-c]pyridin-2-yl]-1,2,4-oxadiazol-5-amine] was 268 to 270 °C; that for `CCOC(=O)C1(CC)Cc2c(Sc3ccc(C)cc3)ncnc2S1` (centres unmarked) [Example 7, ethyl 6-ethyl-4-[(4-methylphenyl)thio]thieno[2,3-d]pyrimidine-6-carboxylate] was 87.5 to 90 °C.
Turning to `Cc1cc(C)cc(Sc2cncc3sc(C(N)=O)cc23)c1` [Example 51, 4-[(3,5-dimethylphenyl)thio]thieno[2,3-c]pyridine-2-carboxamide], the melting point fell in the range of 177 to 179 °C.
The value for `NC(=O)/C=C/c1cc2c(Oc3ccc(Cl)cc3)cncc2s1` [Example 92, (E)-3-[4-(4-chlorophenoxy)thieno[2,3-c]pyridin-2-yl]-2-propenamide] was 176 to 178 °C; that for `O=C(Nc1ccc(Cl)cc1)c1cnc2sccc2c1Cl` [Example 133, 4-chloro-N-(4-chlorophenyl)thieno[2,3-b]pyridine-5-carboxamide] was 199 to 202 °C.
Next, `Clc1ccc(Oc2cncc3sc(C4=NCCN4)cc23)cc1` [Example 298, 4-(4-Chlorophenoxy)-2-(4,5-dihydro-1H-imidazol-2-yl)thieno[2,3-c]pyridine]: 154 to 155 °C.
`CCc1cc2c(Nc3nnc(C)s3)ncnc2s1` [Example 9, 6-ethyl-N-(5-methyl-1,3,4-thiadiazol-2-yl)thieno[2,3-d]pyrimidin-4-amine] yielded a melting point of 277 to 280 °C.
Next, `NC(=O)c1cc2c(Oc3ccc(COC(=O)c4ccco4)cc3)cncc2s1` [Example 200, 4-[[2-(Aminocarbonyl)thieno[2,3-c]pyridin-4-yl]oxy}benzyl 2-furoate]: 180 to 182 °C; `Cc1ccc(Sc2cncc3sc(C=NO)cc23)cc1` [Example 30, 4-[(4-methylphenyl)thio]thieno[2,3-c]pyridine-2-carboxaldehyde, oxime]: 209 to 210 °C.
Consider `Nc1ccc(-c2cc3c(Oc4ccc(Cl)cc4)cncc3s2)cc1` [Example 272, 4-[4-(4-Chlorophenoxy)thieno[2,3-c]pyridin-2-yl]aniline], for which the melting point is 178 to 182 °C.
The value for `NC(=O)c1cc2c(Oc3ccc(C(F)(F)F)cc3)cnc(Cl)c2s1` [Example 318, 7-Chloro-4-[4-(trifluoromethyl)phenoxy]thieno[2,3-c]pyridine-2-carboxamide] was 175 to 176 °C.
Regarding `Cc1ccc(Sc2cncc3sc(C(=O)c4ccccc4)cc23)cc1` [Example 34, 2-benzoyl-4-[(4-methylphenyl)thio]thieno[2,3-c]pyridine], the melting point lay in the range of 103 to 107 °C.
Next, `Oc1ccc(-c2cc3c(Oc4ccc(Cl)cc4)cncc3s2)cc1` [Example 270, 4-[4-(4-Chlorophenoxy)thieno[2,3-c]pyridin-2-yl]phenol]: 213 to 215 °C.
As to `O=C(NCC(O)CO)c1cc2c(Oc3ccc(Br)cc3)cncc2s1` (centres unmarked) [Example 149, 4-(4-Bromophenoxy)-N-(2,3-dihydroxypropyl)thieno[2,3-c]pyridine-2-carboxamide], the melting point was 76 to 77 °C.
